The first assay deals with passive cutaneous anaphylaxis. Nature of the assay: passive cutaneous anaphylaxis test (P.C.A.) on rats, oral administration. Type of assay: in vivo, rat (SLC Wister). The settings on record: 0.5 h, rat, 30 mg/kg, antigen 30 minutes after administration, read-out: Percent inhibition (%). On the procedure:
Various 5-hydroxy-quinolopyran-4-one-2-carboxylic acid esters in terms of the R group represented by the general formula [I] were prepared. […] In order to estimate the efficacy of each compound as an anti-allergic antasthmatic, the efficacy was evaluated according to a passive cutaneous anaphylaxis test (P.C.A.) on rats.
To SLC Wister rats were administered intracutaneously egg white albumin recrystallized 5 times and Bodetallapertussis Vaccine, and serum was collected after 13 days from the rats. […] A physiological salt solution in which egg white albumin and a dye (Evans' blue) were dissolved was administered intravenously, 30 minutes after the oral administration, to the rats; and 30 minutes thereafter the back skins of the rats were peeled off. The dye that transuded from the peeled skin was extracted with Na2 SO4 and acetone, and the quantities of the dye were measured by colorimetry at 620 m μ.
With `Cc1ccc2c(nc(O)c3c(=O)cc(C(=O)OC(C)C(C)(C)C)oc32)c1C` (centres unmarked) [3,3-dimethyl-2-butyl ester of 7,8-dimethyl-5-hydroxy-quinolo[4,3-b]pyran-4-one-2-carboxylic acid, reference compound], the inhibition in vivo at 30 mg/kg amounted to 42.7%.

With `Cc1ccc2c(nc(O)c3c(=O)cc(C(=O)OCCCC(C)C)oc32)c1C` [4-methyl-1-pentyl ester of 7,8-dimethyl-5-hydroxy-quinolo[4,3-b]pyran-4-one-2-carboxylic acid], the inhibition in vivo at 30 mg/kg amounted to 78.5%.

Turning to `CCC(OC(=O)c1cc(=O)c2c(O)nc3c(C)c(C)ccc3c2o1)C(C)C` (centres unmarked) [2-methyl-3-pentyl ester of 7,8-dimethyl-5-hydroxy-quinolo[4,3-b]pyran-4-one-2-carboxylic acid, reference compound], the inhibition in vivo at 30 mg/kg was found to be 32.1%.

Regarding `CCCC(C)OC(=O)c1cc(=O)c2c(O)nc3c(C)c(C)ccc3c2o1` (centres unmarked) [2-pentyl ester of 7,8-dimethyl-5-hydroxy-quinolo[4,3-b]pyran-4-one-2-carboxylic acid], the inhibition in vivo at 30 mg/kg turned out to be 95.1%.

Consider `Cc1ccc2c(nc(O)c3c(=O)cc(C(=O)OC4CCCCC4)oc32)c1C` [1-cyclohexyl ester of 7,8-dimethyl-5-hydroxy-quinolo[4,3-b]pyran-4-one-2-carboxylic acid, reference compound], for which the inhibition in vivo at 30 mg/kg was 33.7%.

For the molecule `CC(C)CCOC(=O)c1cc(=O)c2c(O)nc3ccc(Cl)cc3c2o1` [3-methyl-1-butyl ester of 9-chloro-5-hydroxy-quinolo[4,3-b]pyran-4-one-2-carboxylic acid], the inhibition in vivo at 30 mg/kg was 59.5%.

Regarding `CCCCC(C)OC(=O)c1cc(=O)c2c(O)nc3c(C)c(C)ccc3c2o1` (centres unmarked) [2-hexyl ester of 7,8-dimethyl-5-hydroxy-quinolo[4,3-b]pyran-4-one-2-carboxylic acid], the inhibition in vivo at 30 mg/kg came out at 94.7%.

For the molecule `Cc1ccc2c(nc(O)c3c(=O)cc(C(=O)OCCC(C)C)oc32)c1C` [3-methyl-1-butyl ester of 7,8-dimethyl-5-hydroxy-quinolo[4,3-b]pyran-4-one-2-carboxylic acid], the inhibition in vivo at 30 mg/kg was 95.5%.

Consider `COc1cc2nc(O)c3c(=O)cc(C(=O)OCCC(C)C)oc3c2cc1OC` [3-methyl-1-butyl ester of 8,9-dimethoxy-5-hydroxy-quinolo[4,3-b]pyran-4-one-2-carboxylic acid], for which the inhibition in vivo at 30 mg/kg came to 67.3%.

With `CCCCCCCCCCCCOC(=O)c1cc(=O)c2c(O)nc3c(C)c(C)ccc3c2o1` [n-dodecyl ester of 7,8-dimethyl-5-hydroxy-quinolo[4,3-b]pyran-4-one-2-carboxylic acid, reference compound], the inhibition in vivo at 30 mg/kg is -26.2%.

`CCC(C)COC(=O)c1cc(=O)c2c(O)nc3ccc(C)cc3c2o1` (centres unmarked) [2-methyl-1-butyl ester of 9-methyl-5-hydroxy-quinolo[4,3-b]pyran-4-one-2-carboxylic acid]: the inhibition in vivo at 30 mg/kg turned out to be 83%.

As to `CCCCCCOC(=O)c1cc(=O)c2c(O)nc3c(C)c(C)ccc3c2o1` [n-hexyl ester of 7,8-dimethyl-5-hydroxy-quinolo[4,3-b]pyran-4-one-2-carboxylic acid], the inhibition in vivo at 30 mg/kg stood at 72%.

Consider `CCCC(C)COC(=O)c1cc(=O)c2c(O)nc3ccc(C)cc3c2o1` (centres unmarked) [2-methyl-1-pentyl ester of 9-methyl-5-hydroxy-quinolo[4,3-b]pyran-4-one-2-carboxylic acid], for which the inhibition in vivo at 30 mg/kg was 83.8%.

On to `CCCCCCCCOC(=O)c1cc(=O)c2c(O)nc3c(C)c(C)ccc3c2o1` [n-octyl ester of 7,8-dimethyl-5-hydroxy-quinolo[4,3-b]pyran-4-one-2-carboxylic acid, reference compound], for which the inhibition in vivo at 30 mg/kg is 39.3%.

As for `CCC(CC)COC(=O)c1cc(=O)c2c(O)nc3c(C)c(C)ccc3c2o1` [2-ethyl-1-butyl ester of 7,8-dimethyl-5-hydroxy-quinolo[4,3-b]pyran-4-one-2-carboxylic acid, reference compound], the inhibition in vivo at 30 mg/kg stood at 49.1%.

For the molecule `CCCCc1ccc2nc(O)c3c(=O)cc(C(=O)OCCC(C)C)oc3c2c1` [3-methyl-1-butyl ester of 9-n-butyl-5-hydroxy-quinolo[4,3-b]pyran-4-one-2-carboxylic acid], the inhibition in vivo at 30 mg/kg was determined as 64.5%.

On to `CCC(C)CCOC(=O)c1cc(=O)c2c(O)nc3c(C)c(C)ccc3c2o1` (centres unmarked) [3-methyl-1-pentyl ester of 7,8-dimethyl-5-hydroxy-quinolo[4,3-b]pyran-4-one-2-carboxylic acid], for which the inhibition in vivo at 30 mg/kg was found to be 80.8%.

As for `Cc1ccc2nc(O)c3c(=O)cc(C(=O)OCCC(C)C)oc3c2c1` [3-methyl-1-butyl ester of 9-methyl-5-hydroxy-quinolo[4,3-b]pyran-4-one-2-carboxylic acid], the inhibition in vivo at 30 mg/kg is 87.2%.

`Cc1ccc2c(nc(O)c3c(=O)cc(C(=O)OC(C)C)oc32)c1C` [isopropyl ester of 7,8-dimethyl-5-hydroxy-quinolo[4,3-b]pyran-4-one-2-carboxylic acid, reference compound]: the inhibition in vivo at 30 mg/kg was determined as 7.3%.

As to `CCC(C)COC(=O)c1cc(=O)c2c(O)nc3c(C)c(C)ccc3c2o1` (centres unmarked) [2-methyl-1-butyl ester of 7,8-dimethyl-5-hydroxy-quinolo[4,3-b]pyran-4-one-2-carboxylic acid], the inhibition in vivo at 30 mg/kg came to 99.8%.

For the molecule `Cc1ccc2nc(O)c3c(=O)cc(C(=O)OCC(C)(C)C)oc3c2c1` [2,2-dimethyl-1-propyl ester of 9-methyl-5-hydroxy-quinolo[4,3-b]pyran-4-one-2-carboxylic acid], the inhibition in vivo at 30 mg/kg is 58.4%.

Turning to `Cc1ccc2c(nc(O)c3c(=O)cc(C(=O)OCC(C)C)oc32)c1C` [2-methyl-1-propyl ester of 7,8-dimethyl-5-hydroxy-quinolo[4,3-b]pyran-4-one-2-carboxylic acid, reference compound], the inhibition in vivo at 30 mg/kg turned out to be 2.5%.

On to `CCCC(C)OC(=O)c1cc(=O)c2c(O)nc3ccc(C)cc3c2o1` (centres unmarked) [2-pentyl ester of 9-methyl-5-hydroxy-quinolo[4,3-b]pyran-4-one-2-carboxylic acid], for which the inhibition in vivo at 30 mg/kg is 70%.

With `Cc1ccc2c(nc(O)c3c(=O)cc(C(=O)OC(C)CC(C)C)oc32)c1C` (centres unmarked) [4-methyl-2-pentyl ester of 7,8-dimethyl-5-hydroxy-quinolo[4,3-b]pyran-4-one-2-carboxylic acid], the inhibition in vivo at 30 mg/kg was 67.6%.

For the molecule `Cc1ccc2c(nc(O)c3c(=O)cc(C(=O)OCCC(C)(C)C)oc32)c1C` [3,3-dimethyl-1-butyl ester of 7,8-dimethyl-5-hydroxy-quinolo[4,3-b]pyran-4-one-2-carboxylic acid, reference compound], the inhibition in vivo at 30 mg/kg is 26.5%.

`CCCCOC(=O)c1cc(=O)c2c(O)nc3c(C)c(C)ccc3c2o1` [n-butyl ester of 7,8-dimethyl-5-hydroxy-quinolo[4,3-b]pyran-4-one-2-carboxylic acid, reference compound]: the inhibition in vivo at 30 mg/kg came to 48.8%.

Turning to `Cc1ccc2c(nc(O)c3c(=O)cc(C(=O)OCCCc4ccccc4)oc32)c1C` [3-phenyl-1-propyl ester of 7,8-dimethyl-5-hydroxy-quinolo[4,3-b]pyran-4-one-2-carboxylic acid, reference compound], the inhibition in vivo at 30 mg/kg is -7.2%.

For the molecule `CCCCCCCCCCOC(=O)c1cc(=O)c2c(O)nc3c(C)c(C)ccc3c2o1` [n-decyl ester of 7,8-dimethyl-5-hydroxy-quinolo[4,3-b]pyran-4-one-2-carboxylic acid, reference compound], the inhibition in vivo at 30 mg/kg is 4.7%.

Consider `CCCCCCCOC(=O)c1cc(=O)c2c(O)nc3c(C)c(C)ccc3c2o1` [n-heptyl ester of 7,8-dimethyl-5-hydroxy-quinolo[4,3-b]pyran-4-one-2-carboxylic acid, reference compound], for which the inhibition in vivo at 30 mg/kg was 36.3%.

As to `CCCC(CC)OC(=O)c1cc(=O)c2c(O)nc3ccc(C)cc3c2o1` (centres unmarked) [3-hexyl ester of 9-methyl-5-hydroxy-quinolo[4,3-b]pyran-4-one-2-carboxylic acid], the inhibition in vivo at 30 mg/kg was 81.8%.

The assay is the same for the next values; noted with them: 0.5 h, rat, 100 mg/kg, antigen 30 minutes after administration, read-out: Percent inhibition (%).
For `COC(=O)c1cc(=O)c2c(O)nc3c(C)c(C)ccc3c2o1` [methyl ester of 7,8-dimethyl-5-hydroxy-quinolo[4,3-b]pyran-4-one-2-carboxylic acid, reference compound], the inhibition in vivo at 100 mg/kg was found to be 39.4%.

For the molecule `Cc1ccc2c(nc(O)c3c(=O)cc(C(=O)O)oc32)c1C` [7,8-dimethyl-5-hydroxy-quinolo[4,3-b]pyran-4-one-2-carboxylic acid, reference compound], the inhibition in vivo at 100 mg/kg was determined as 5.5%.

With `Cc1ccc2c(nc(O)c3c(=O)cc(C(=O)OCC(O)CO)oc32)c1C` (centres unmarked) [2,3-dihydroxy-propyl ester of 7,8-dimethyl-5-hydroxy-quinolo[4,3-b]pyran-4-one-2-carboxylic acid, reference compound], the inhibition in vivo at 100 mg/kg stood at 8.6%.

Turning to `CCOC(=O)c1cc(=O)c2c(O)nc3c(C)c(C)ccc3c2o1` [ethyl ester of 7,8-dimethyl-5-hydroxy-quinolo[4,3-b]pyran-4-one-2-carboxylic acid, reference compound], the inhibition in vivo at 100 mg/kg amounted to 36.1%.

Turning to `Cc1ccc2c(nc(O)c3c(=O)cc(C(=O)OCc4ccccc4)oc32)c1C` [benzyl ester of 7,8-dimethyl-5-hydroxy-quinolo[4,3-b]pyran-4-one-2-carboxylic acid, reference compound], the inhibition in vivo at 100 mg/kg was 13.2%.

Values taken from US4298610A, “Ester derivatives of quinolopyran-4-one-2-carboxylic acids and antiallergic antasthmatics” (priority 1978, dated 1981).
